Experimental data published in patent US12077503B2, “Substituted cyclic amides and their use as herbicides” (FMC CORPORATION, priority 2015, dated 2024).

Assays:
Format in all cases: in vivo
[1] = test system: barnyardgrass (Echinochloa crus-galli); experiment: Test G Pre-Emergence Protocol; conditions: Echinochloa crus-galli, pre-emergence, 312 h, evaluated after 13 days; for pest or weed control at 15.625 g/ha: 15.625 g ai/ha; for pest or weed control at 15.625 g/ha / pest or weed control at 250 g/ha: read-out: Barnyardgrass damage rating (100=total damage to plant; 0=no damage to plant); for pest or weed control at 62.5 g/ha: 62.5 g ai/ha, 100=total damage to plant, 0=no damage to plant, read-out: Barnyardgrass damage rating; for pest or weed control at 250 g/ha: 250 g ai/ha
In short: (§1)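 Visual injury (0–100) at day 13 after a single pre-emergence spray. Rates: 15.625, 62.5, 250 g/ha in acetone–water 50:50 with 0.5% Tween 20. Growth conditions: 24/16° C, 14 h light, 65% humidity.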

corn (Zea mays) [2] = experiment: Test G Pre-Emergence Protocol; conditions: Zea mays, pre-emergence, 312 h, evaluated after 13 days; for plant injury at 15.625 g/ha: 15.625 g ai/ha; for plant injury at 15.625 g/ha / plant injury at 250 g/ha: read-out: Corn damage rating (100=total damage to plant; 0=no damage to plant); for plant injury at 62.5 g/ha: 62.5 g ai/ha, 100=total damage to plant, 0=no damage to plant, read-out: Corn damage rating; for plant injury at 250 g/ha: 250 g ai/ha
In short: as §1

[3] = test system: giant foxtail (Setaria faberi); experiment: Test G Pre-Emergence Protocol; conditions: Setaria faberi, pre-emergence, 312 h, evaluated after 13 days; for pest or weed control at 15.625 g/ha: 15.625 g ai/ha; for pest or weed control at 15.625 g/ha / pest or weed control at 250 g/ha: read-out: Foxtail, Giant damage rating (100=total damage to plant; 0=no damage to plant); for pest or weed control at 62.5 g/ha: 62.5 g ai/ha, 100=total damage to plant, 0=no damage to plant, read-out: Foxtail, Giant damage rating; for pest or weed control at 250 g/ha: 250 g ai/ha
In short: as §1

[4] = test system: ivy-leaved morning glory (Ipomoea hederacea); experiment: Test G Pre-Emergence Protocol; conditions: Ipomoea, pre-emergence, 312 h, evaluated after 13 days; for pest or weed control at 15.625 g/ha: 15.625 g ai/ha; for pest or weed control at 15.625 g/ha / pest or weed control at 250 g/ha: read-out: Morningglory, Ivy-leaved damage rating (100=total damage to plant; 0=no damage to plant); for pest or weed control at 62.5 g/ha: 62.5 g ai/ha, 100=total damage to plant, 0=no damage to plant, read-out: Morningglory, Ivy-leaved damage rating; for pest or weed control at 250 g/ha: 250 g ai/ha
In short: as §1

[5] = test system: redroot pigweed (Amaranthus retroflexus); experiment: Test G Pre-Emergence Protocol; conditions: Amaranthus retroflexus, pre-emergence, 312 h, evaluated after 13 days; for pest or weed control at 15.625 g/ha: 15.625 g ai/ha; for pest or weed control at 15.625 g/ha / pest or weed control at 250 g/ha: read-out: Pigweed, Redroot damage rating (100=total damage to plant; 0=no damage to plant); for pest or weed control at 62.5 g/ha: 62.5 g ai/ha, 100=total damage to plant, 0=no damage to plant, read-out: Pigweed, Redroot damage rating; for pest or weed control at 250 g/ha: 250 g ai/ha
In short: as §1

[6] = test system: velvetleaf (Abutilon theophrasti); experiment: Test G Pre-Emergence Protocol; conditions: Abutilon theophrasti, pre-emergence, 312 h, evaluated after 13 days; for pest or weed control at 15.625 g/ha: 15.625 g ai/ha; for pest or weed control at 15.625 g/ha / pest or weed control at 250 g/ha: read-out: Velvetleaf damage rating (100=total damage to plant; 0=no damage to plant); for pest or weed control at 62.5 g/ha: 62.5 g ai/ha, 100=total damage to plant, 0=no damage to plant, read-out: Velvetleaf damage rating; for pest or weed control at 250 g/ha: 250 g ai/ha
In short: as §1

[7] = test system: barnyardgrass (Echinochloa crus-galli); experiment: Test G Post-Emergence Protocol; conditions: Echinochloa crus-galli, post-emergence, 312 h, read-out: Barnyardgrass damage rating; for pest or weed control at 15.625 g/ha: 15.625 g ai/ha, evaluated after 13 days (100=total damage to plant; 0=no damage to plant); for pest or weed control at 62.5 g/ha: 62.5 g ai/ha; for pest or weed control at 62.5 g/ha / pest or weed control at 250 g/ha: evaluated after 13 days, 100=total damage to plant, 0=no damage to plant; for pest or weed control at 250 g/ha: 250 g ai/ha
In short: (§2)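 Values are percent visual injury at 13 days after treatment (0 none, 100 total). Treatment was a post-emergence spray at 15.625, 62.5 or 250 g/ha on 8-day-old pot plants kept at 24/16 °C.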

corn (Zea mays) [8] = experiment: Test G Post-Emergence Protocol; conditions: Zea mays, post-emergence, 312 h, read-out: Corn damage rating; for plant injury at 15.625 g/ha: 15.625 g ai/ha, evaluated after 13 days (100=total damage to plant; 0=no damage to plant); for plant injury at 62.5 g/ha: 62.5 g ai/ha; for plant injury at 62.5 g/ha / plant injury at 250 g/ha: evaluated after 13 days, 100=total damage to plant, 0=no damage to plant; for plant injury at 250 g/ha: 250 g ai/ha
In short: as §2

[9] = test system: giant foxtail (Setaria faberi); experiment: Test G Post-Emergence Protocol; conditions: Setaria faberi, post-emergence, 312 h, read-out: Foxtail, Giant damage rating; for pest or weed control at 15.625 g/ha: 15.625 g ai/ha, evaluated after 13 days (100=total damage to plant; 0=no damage to plant); for pest or weed control at 62.5 g/ha: 62.5 g ai/ha
In short: as §2

[10] = test system: ivy-leaved morning glory (Ipomoea hederacea); experiment: Test G Post-Emergence Protocol; conditions: Ipomoea, post-emergence, 312 h, read-out: Morningglory, Ivy-leaved damage rating; for pest or weed control at 15.625 g/ha: 15.625 g ai/ha, evaluated after 13 days (100=total damage to plant; 0=no damage to plant); for pest or weed control at 62.5 g/ha: 62.5 g ai/ha; for pest or weed control at 62.5 g/ha / pest or weed control at 250 g/ha: evaluated after 13 days, 100=total damage to plant, 0=no damage to plant; for pest or weed control at 250 g/ha: 250 g ai/ha
In short: as §2

[11] = test system: redroot pigweed (Amaranthus retroflexus); experiment: Test G Post-Emergence Protocol; conditions: Amaranthus retroflexus, post-emergence, 312 h, read-out: Pigweed, Redroot damage rating; for pest or weed control at 15.625 g/ha: 15.625 g ai/ha, evaluated after 13 days (100=total damage to plant; 0=no damage to plant); for pest or weed control at 62.5 g/ha: 62.5 g ai/ha; for pest or weed control at 62.5 g/ha / pest or weed control at 250 g/ha: evaluated after 13 days, 100=total damage to plant, 0=no damage to plant; for pest or weed control at 250 g/ha: 250 g ai/ha
In short: as §2

[12] = test system: velvetleaf (Abutilon theophrasti); experiment: Test G Post-Emergence Protocol; conditions: Abutilon theophrasti, post-emergence, 312 h, read-out: Velvetleaf damage rating; for pest or weed control at 15.625 g/ha: 15.625 g ai/ha, evaluated after 13 days (100=total damage to plant; 0=no damage to plant); for pest or weed control at 62.5 g/ha: 62.5 g ai/ha; for pest or weed control at 62.5 g/ha / pest or weed control at 250 g/ha: evaluated after 13 days, 100=total damage to plant, 0=no damage to plant; for pest or weed control at 250 g/ha: 250 g ai/ha
In short: as §2

[13] = evaluated after 13 days, 100=total damage to plant, 0=no damage to plant

Structure (SMILES) | pest or weed control at 15.625 g/ha [1] | pest or weed control at 62.5 g/ha [1] | pest or weed control at 250 g/ha [1] | plant injury at 15.625 g/ha (corn (Zea mays) [2]) | plant injury at 62.5 g/ha (corn (Zea mays) [2]) | plant injury at 250 g/ha (corn (Zea mays) [2]) | pest or weed control at 15.625 g/ha [3] | pest or weed control at 62.5 g/ha [3] | pest or weed control at 250 g/ha [3] | pest or weed control at 15.625 g/ha [4] | pest or weed control at 62.5 g/ha [4] | pest or weed control at 250 g/ha [4] | pest or weed control at 15.625 g/ha [5] | pest or weed control at 62.5 g/ha [5] | pest or weed control at 250 g/ha [5] | pest or weed control at 15.625 g/ha [6] | pest or weed control at 62.5 g/ha [6] | pest or weed control at 250 g/ha [6] | pest or weed control at 15.625 g/ha [7] | pest or weed control at 62.5 g/ha [7] | also measured
CN1C[C@@H](c2cccc(I)c2)[C@H](C(=O)Nc2cccc(F)c2F)C1=O (racemic) [Compound 1754] | 60% | 80% | 90% | 0% | 0% | 80% | 80% | 90% | 90% | 0% | 0% | 10% | 10% | 20% | 60% | 10% | 0% | 30% | 30% | 70% | pest or weed control at 250 g/ha [7]: 80%; plant injury at 15.625 g/ha (corn (Zea mays) [8]): 10%; plant injury at 62.5 g/ha (corn (Zea mays) [8]): 60%; plant injury at 250 g/ha (corn (Zea mays) [8]): 70%; pest or weed control at 15.625 g/ha [9]: 60%; pest or weed control at 62.5 g/ha [9, 13]: 80%; pest or weed control at 15.625 g/ha [10]: 30%; pest or weed control at 62.5 g/ha [10]: 70%; pest or weed control at 250 g/ha [10]: 70%; pest or weed control at 15.625 g/ha [11]: 0%; pest or weed control at 62.5 g/ha [11]: 40%; pest or weed control at 250 g/ha [11]: 70%; pest or weed control at 15.625 g/ha [12]: 10%; pest or weed control at 62.5 g/ha [12]: 30%; pest or weed control at 250 g/ha [12]: 60%
CN1C[C@H](c2cccc(C(F)(F)F)c2)[C@@H](C(=O)Nc2cnccc2C#N)C1=O (racemic) [Compound 1761] | 0% | 30% | 70% | 0% | 0% | 0% | 0% | 40% | 70% | 0% | 0% | 0% | 0% | 0% | 0% | 0% | 0% | 0% | 0% | 0% | pest or weed control at 250 g/ha [7]: 70%; plant injury at 15.625 g/ha (corn (Zea mays) [8]): 0%; plant injury at 62.5 g/ha (corn (Zea mays) [8]): 0%; plant injury at 250 g/ha (corn (Zea mays) [8]): 0%; pest or weed control at 15.625 g/ha [9]: 0%; pest or weed control at 62.5 g/ha [9, 13]: 0%; pest or weed control at 250 g/ha ([9]; 250 g ai/ha, evaluated after 13 days, 100=total damage to plant, 0=no damage to plant): 70%; pest or weed control at 15.625 g/ha [10]: 0%; pest or weed control at 62.5 g/ha [10]: 40%; pest or weed control at 250 g/ha [10]: 50%; pest or weed control at 15.625 g/ha [11]: 0%; pest or weed control at 62.5 g/ha [11]: 0%; pest or weed control at 250 g/ha [11]: 10%; pest or weed control at 15.625 g/ha [12]: 0%; pest or weed control at 62.5 g/ha [12]: 0%; pest or weed control at 250 g/ha [12]: 10%
